From patent USRE37781E1, “Substituted cyclic carbonyls and derivatives thereof useful as retroviral protease inhibitors” (DuPont Pharmaceuticals Company, priority 1991, dated 2002)
Converted amounts (≈) assume the structure as drawn. Where two headings read alike, the source gives them in different places.

Experiments:
HIV-1 (RF) in MT-2 cells = assay: microbe, parasite or virus in culture; type: cell-based
Procedure, shortened: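 HIV-1 laboratory strains (RF, MN, IIIB) grown in H9 cells in RPMI 1640 with 5% FCS; infections in MT-2 cells. Viral RNA quantified by hybridization with biotinylated gag/pol capture probes on streptavidin plates and alkaline phosphatase-conjugated reporter probes; BH10 gag-pol in vitro transcripts serve as RNA standards.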

[1] = target: single-chain tethered dimer of HIV protease (Human immunodeficiency virus 1, UniProt P04585); assay: biochemical; type: biochemical; design: fused on or other part: A second copy of the same protease unit is joined to the first by a short peptide tether, giving one polypeptide
[2] = Human immunodeficiency virus 1, MT2, 48 h, Table 2d, class symbols, read-out: IC90
[3] = read-out: HPLC K1, Table 2d, class symbols
[4] = Table 2d, HIV protease inhibition, HPLC method, read-out: HPLC K1
[5] = Human immunodeficiency virus 1, MT2, Table 2i, read-out: IC90
[6] = Table 2d, class symbols, read-out: HPLC K1

`CCCC(=O)c1cccc(CN2C(=O)N(Cc3cccc(C(=O)CCC)c3)C(Cc3ccc(F)cc3)C(O)C(O)C2Cc2ccc(F)cc2)c1` (stereo not drawn) [20P] was tested, and the IC90 (HIV-1 (RF) in MT-2 cells; Table 2i) was “+++ (+++=<10 μg/mL)” and the Ki ([1]; Table 2i, read-out: HPLC Ki) was < 10 nM.

For `NC(=O)c1cccc(CN2C(=O)N(Cc3cccc(C(N)=O)c3)C(Cc3ccc(F)c(F)c3)C(O)C(O)C2Cc2ccc(F)c(F)c2)c1` (stereo not drawn) [20AC], the IC90 (HIV-1 (RF) in MT-2 cells; Table 2i) was “+++ (+++=<10 μg/mL)” and the Ki ([1]; Table 2i, read-out: HPLC Ki) was < 10 nM.

For `COc1cccc(CC2C(O)C(O)C(Cc3cccc(OC)c3)N(Cc3ccc(CO)cc3)C(=O)N2Cc2ccc(CO)cc2)c1` (stereo not drawn) [20AT], the IC90 (HIV-1 (RF) in MT-2 cells; Table 2i) was “+++ (+++=<10 μg/mL)” and the Ki ([1]; Table 2i, read-out: HPLC Ki) was < 10 nM.

`O=S1(=O)N(CCCCCO)C(Cc2ccccc2)C(O)C(O)C(Cc2ccccc2)N1Cc1ccc2ccccc2c1` (stereo not drawn) [23AF] was tested, and the IC90 (HIV-1 (RF) in MT-2 cells; Table 2m) was “+++ (+++=<10 μg/mL)” and the Ki ([1]; Table 2m, read-out: HPLC Ki) was < 10 nM.

For `CCOP1(=O)N[C@H](Cc2ccccc2)[C@H](O)[C@@H](O)[C@@H](Cc2ccccc2)N1` (stereo partly drawn) [28F], the IC90 (HIV-1 (RF) in MT-2 cells; Table 2r) was “++/+ (The ++/+ is used in the cases where an IC90 was determined to be >50 μg/mL)” and the Ki ([1]; Table 2r, read-out: Ki HPLC) was > 1000 nM.

`CCCCN1C(=O)N(CCCC)C(Cc2ccccc2)C(O)C(O)C1Cc1ccccc1` (stereo not drawn) [Example 13R] was tested, and the IC90 (HIV-1 (RF) in MT-2 cells; [2]) was < 10 µg/mL and the Ki [1, 3] was 10 to 1000 nM.

`NC(=O)c1cc(CN2C(=O)N(Cc3ccc(F)c(C(N)=O)c3)C(Cc3ccccc3)C(O)C(O)C2Cc2ccccc2)ccc1F` (stereo not drawn) [15ED] was tested, and the IC90 (HIV-1 (RF) in MT-2 cells; Table 2d, HIV RNA assay) was “++ (++=10 to 100 μg/mL)” and the Ki [1, 4] was < 10 nM.

With `CC(=NO)c1cccc(CN2C(=O)N(Cc3cccc(C(C)=NO)c3)C(Cc3ccc(F)cc3)C(O)C(O)C2Cc2ccc(F)cc2)c1` (stereo not drawn) [20U] the IC90 (HIV-1 (RF) in MT-2 cells; [5]) was < 10 µg/mL and the Ki ([1]; read-out: HPLC Ki, Table 2i) was < 10 nM.

`O=C1NC(Cc2ccccc2)C(O)C(O)C(Cc2ccccc2)N1Cc1cccc(O)c1` (stereo not drawn) [10I] was tested, and the IC90 (HIV-1 (RF) in MT-2 cells; [2]) was < 10 µg/mL and the Ki [1, 3] was < 10 nM.

In the case of `CC(=O)NCCCCCN1C(=O)N(CCCCCNC(C)=O)C(Cc2ccccc2)C(O)C(O)C1Cc1ccccc1` (stereo not drawn) [15ET], the IC90 (HIV-1 (RF) in MT-2 cells; Table 2d, HIV RNA assay) is reported as “++/+ (The ++/+ is used in the cases where an IC90 was determined to be >50 μg/mL)” and the Ki [1, 4] is reported as 10 to 1000 nM.

`CCNCc1cccc(C(=O)OCc2ccc(CN3C(=O)N(Cc4ccc(COC(=O)c5cccc(CNCC)c5)cc4)[C@H](Cc4ccccc4)[C@H](O)[C@@H](O)[C@H]3Cc3ccccc3)cc2)c1.Cl` [29U] was tested, and the IC90 (HIV-1 (RF) in MT-2 cells; Table 2s) was “+++ (+++=<10 μg/mL)” and the Ki ([1]; Table 2s, read-out: Ki (HPLC)) was > 1000 nM.

`COC(=O)c1ccc(CN2C(Cc3ccc(F)cc3)C(O)C(O)C(Cc3ccc(F)cc3)N(Cc3ccc(C(=O)OC)cc3)S2(=O)=O)cc1` (stereo not drawn) [31B] was tested, and the IC90 (HIV-1 (RF) in MT-2 cells; Table 2u) was “+++ (+++=<10 μg/mL)”, the IC90 (HIV-1 (RF) in MT-2 cells; Table 2u (second printing)) was “+++ (+++=<10 μg/mL)” and the Ki ([1]; Table 2u (second printing), HPLC method, read-out: K1 (HPLC)) was 10 to 1000 nM. It also gave a Ki ([1]; Table 2u, HPLC method, read-out: K1 (HPLC)) of 10 to 1000 nM.

`CN(C)CCNC(=O)c1cccc(CN2C(Cc3ccccc3)C(O)C(O)C(Cc3ccccc3)N(Cc3cccc(C(=O)NCCN(C)C)c3)S2(=O)=O)c1` (stereo not drawn) [23AA] was tested, and the IC90 (HIV-1 (RF) in MT-2 cells; Table 2m) was “++ (++=10 to 100 μg/mL)” and the Ki ([1]; Table 2m, read-out: HPLC Ki) was 10 to 1000 nM.

For `CSCCCCCN1C(=O)N(CCCCCO)C(Cc2ccccc2)C(O)C(O)C1Cc1ccccc1` (stereo not drawn) [Example 15VJ], the IC90 (HIV-1 (RF) in MT-2 cells; [2]) was < 10 µg/mL and the Ki [1, 3] was 10 to 1000 nM.

`O=C1N(Cc2cccc(CNOCc3ccccc3)c2)C(Cc2ccccc2)C(O)C(O)C(Cc2ccccc2)N1Cc1cccc(CNOCc2ccccc2)c1` (stereo not drawn) [Example 9F] was tested, and the IC90 (HIV-1 (RF) in MT-2 cells; Table 2d, class symbols) was “+ (+=>100 μg/mL)” and the Ki [1, 6] was 10 to 1000 nM.

With `Cc1ccc(S(=O)(=O)NN=Cc2cccc(CN3C(=O)N(Cc4cccc(C=NNS(=O)(=O)c5ccc(C)cc5)c4)C(Cc4ccccc4)C(O)C(O)C3Cc3ccccc3)c2)cc1` (stereo not drawn) [Example 15YF] the IC90 (HIV-1 (RF) in MT-2 cells; Human immunodeficiency virus 1, MT2, 48 h, Table 2d, HIV RNA assay, read-out: IC90) was < 10 µg/mL and the Ki ([1]; read-out: HPLC K1, Table 2d, HIV protease inhibition, HPLC method) was 10 to 1000 nM.

For `COC(=O)CCCCCN1C(=O)N(CCCCCC(=O)O)C(Cc2ccccc2)C(O)C(O)C1Cc1ccccc1` (stereo not drawn) [Example 12I], the IC90 (HIV-1 (RF) in MT-2 cells; Table 2d, class symbols) was “+ (+=>100 μg/mL)” and the Ki [1, 6] was < 10 nM.

For `COC(=O)CCCCCN1C(=O)N(CCCCCC(=O)OC)C(Cc2ccccc2)C(O)C(O)C1Cc1ccccc1` (stereo not drawn) [Example 12H], the IC90 (HIV-1 (RF) in MT-2 cells; [2]) was 10 to 100 µg/mL (≈ 17.2 to 172 µM) and the Ki [1, 3] was 10 to 1000 nM.

With `N#CCCCCN1C(=O)N(CCCCC#N)C(Cc2ccccc2)C(O)C(O)C1Cc1ccccc1` (stereo not drawn) [15FD] the IC90 (HIV-1 (RF) in MT-2 cells; Human immunodeficiency virus 1, MT2, 48 h, HIV RNA assay, HIV-1 infected MT-2 cells, Table 2d, read-out: IC90) was 10 to 100 µg/mL (≈ 20.5 to 205 µM) and the Ki ([1]; read-out: HPLC K1, HIV protease inhibition, HPLC method, Table 2d) was 10 to 1000 nM.

With `CNCC(=O)Nc1cccc(CN2C(=O)N(Cc3cccc(NC(=O)CNC)c3)C(Cc3ccccc3)C(O)C(O)C2Cc2ccccc2)c1.Cl.Cl` (stereo not drawn) [15O] the IC90 (HIV-1 (RF) in MT-2 cells; Table 2d, class symbols) was “+++ (+++=<10 μg/mL)” and the Ki [1, 6] was < 10 nM.

`O=C1N(Cc2ccc(CO)cc2)C(Cc2ccccc2)C(O)C(O)C(Cc2ccccc2)N1Cc1ccc(CO)cc1` (stereo not drawn) [Example 13M] was tested, and the IC90 (HIV-1 (RF) in MT-2 cells; [2]) was < 10 µg/mL and the Ki [1, 3] was < 10 nM.

With `O=C1N(CCCCC2CO2)C(Cc2ccccc2)C(O)C(O)C(Cc2ccccc2)N1CCCCC1CO1` (stereo not drawn) [Example 13E] the IC90 (HIV-1 (RF) in MT-2 cells; [2]) was < 10 µg/mL and the Ki [1, 3] was 10 to 1000 nM.

In the case of `Nc1ccc(CC2C(O)C(O)C(Cc3ccc(N)cc3)N(CC3CC3)C(=O)N2CC2CC2)cc1` (stereo not drawn) [Example 20F], the IC90 (HIV-1 (RF) in MT-2 cells; [5]) is reported as < 10 µg/mL and the Ki ([1]; read-out: HPLC Ki, Table 2i) is reported as 10 to 1000 nM.
